Where two headings read alike, the source gives them in different places.
Legend:
[1] = target: T1, CD73 on U138 human neuroglioma cells (Homo sapiens, UniProt P21589); test: CD73 Cell-Based Assay (inorganic phosphate from AMP, malachite green); details: AMP substrate, 2 hours at 37° C.
T1 construct: U138 cells were obtained from ATCC and cultured in DMEM with 10% FBS; host or cells: U138 human neuroglioma cells
T1 sequence (P21589 27-549): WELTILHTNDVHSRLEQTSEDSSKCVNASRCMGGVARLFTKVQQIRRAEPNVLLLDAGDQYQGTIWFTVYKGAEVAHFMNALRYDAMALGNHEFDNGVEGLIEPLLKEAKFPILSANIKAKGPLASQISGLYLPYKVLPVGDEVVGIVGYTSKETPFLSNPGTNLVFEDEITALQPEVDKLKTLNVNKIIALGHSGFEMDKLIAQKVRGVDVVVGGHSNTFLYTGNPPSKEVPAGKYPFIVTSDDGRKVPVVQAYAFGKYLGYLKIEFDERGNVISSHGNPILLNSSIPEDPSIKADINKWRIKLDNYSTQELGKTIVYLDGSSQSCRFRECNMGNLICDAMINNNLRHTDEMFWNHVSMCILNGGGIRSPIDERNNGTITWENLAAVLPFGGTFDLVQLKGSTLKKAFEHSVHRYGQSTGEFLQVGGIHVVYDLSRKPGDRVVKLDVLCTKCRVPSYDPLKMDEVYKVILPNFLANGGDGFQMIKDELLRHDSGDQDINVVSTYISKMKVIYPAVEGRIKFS
Procedure: U138 human neuroglioma cells were used in these experiments. U138 cells were obtained from ATCC and cultured in DMEM with 10% FBS. 2500 cells were seeded into 96-well plate with 100 μL of media the day before the experiment. […] After washing, 100 μL of buffer was added to each well, then 100 μL of a mixture of AMP substrate (200 μM) and diluted compound was added to each well. The cells were incubated at 37° C. (with 5% CO2) for 2 hours. 50 μL of supernatant was transferred to a 96-well assay plate and the concentration of inorganic phosphate was determined using malachite green reagent (R&D System; Cat: DY996).

[2] = target: T2, Human CD73 (Homo sapiens, UniProt P21589); test: CD73 Enzyme Assay (EnzChek PNP/MESG kinetic readout of AMP hydrolysis); format: biochemical; details: 0.25 nM hCD73, 25 μM AMP
T2 construct: purchased R&D Systems; host or cells: CHO cells
T2 sequence (P21589 27-549): T1 sequence (P21589 27-549)
Procedure: A compound of the present disclosure (5 μL) was transferred to a 384-well assay plate. The compound was added in a 15 point, 3-fold serial dilution (300 μM to 0.0002 μM) in DMSO. […] The plate was immediately placed in a plate reader (Synergy 2 or Spark 10), and a reading was taken every minute for 10 to 20 minutes in a kinetic run at 360 nm. The linear portion of the curve was used to determine the observed rate (initial velocity). Low signal controls containing 100 μM adenosine 5′-(α,β-methylene) diphosphate and high signal controls containing no compound were measured for each plate.
IC50 values were calculated using Dotmatics template equation for 4-parameter fit. Results are expressed as % inhibition using the following equation: […]

[3] = read-out: CD73 Cell-Based assay IC50
[4] = read-out: CD73 Enzyme Assay IC50

SMILES | IC50 [1, 3] [nM] | IC50 [2, 4] [nM] | IC50 ([1]; read-out: IC50) [nM] | IC50 ([2]; low signal control compound, read-out: IC50) [nM]
N#Cc1c(Cl)nc2c(ccn2[C@@H]2O[C@H](COCP(=O)(O)O)[C@@H](O)[C@H]2O)c1NC1CCCC1 [Compound 1, ((((2R,3S,4R,5R)-5-(6-chloro-5-cyano-4-(cyclopentylamino)-1H-pyrrolo[2,3-b]pyridin-1-yl)-3,4-dihydroxytetrahydrofuran-2-yl)methoxy)methyl)phosphonic acid] | < 10 | < 10 |  | 
N#Cc1c(OCCO)nc2c(ccn2[C@@H]2O[C@H](COCP(=O)(O)O)[C@@H](O)[C@H]2O)c1NC1CCCC1 [Compound 2] |  | 10 to 100 |  | 
N#Cc1c(Cl)nc2c(ccn2[C@@H]2O[C@H](COP(=O)(O)CP(=O)(O)O)[C@@H](O)[C@H]2O)c1NC1CCCC1 [Compound 3, (((((2R,3S,4R,5R)-5-(6-chloro-5-cyano-4-(cyclopentylamino)-1H-pyrrolo[2,3-b]pyridin-1-yl)-3,4-dihydroxytetrahydrofuran-2-yl)methoxy)(hydroxy)phosphoryl)methyl)phosphonic acid] | < 10 | < 10 |  | 
N#Cc1c(Cl)nc2c(ccn2[C@@H]2O[C@H](COCP(=O)(O)O)[C@@H](O)[C@H]2O)c1N[C@H]1CCC(F)(F)C1 [Compound 4] | < 10 | < 10 |  | 
N#Cc1c(Cl)nc2c(ccn2[C@@H]2O[C@H](CS(=O)(=O)CP(=O)(O)O)[C@@H](O)[C@H]2O)c1N[C@H]1CCC(F)(F)C1 [Compound 5] | < 10 | < 10 |  | 
C[C@@H](Nc1c(C#N)c(Cl)nc2c1ccn2[C@@H]1O[C@H](COCP(=O)(O)O)[C@@H](O)[C@H]1O)c1ccc(F)cc1 [Compound 7] | < 10 | < 10 |  | 
C[C@H](Nc1c(C#N)c(Cl)nc2c1ccn2[C@@H]1O[C@H](COCP(=O)(O)O)[C@@H](O)[C@H]1O)c1ccc(F)cc1 [Compound 8] | < 10 | < 10 |  | 
N#Cc1c(Cl)nc2c(ccn2[C@@H]2O[C@H](COCP(=O)(O)O)[C@@H](O)[C@H]2O)c1NC1CCC1 [Compound 9] | < 10 | < 10 |  | 
N#Cc1c(Cl)nc2c(ccn2[C@@H]2O[C@H](COCP(=O)(O)O)[C@@H](O)[C@H]2O)c1NC1CC(F)(F)C1 [Compound 10] | < 10 | < 10 |  | 
N#Cc1c(Cl)nc2c(ccn2[C@@H]2O[C@H](COCP(=O)(O)O)[C@@H](O)[C@H]2O)c1N1CC2CCCC2C1 (stereo partly shown) [Compound 11] | < 10 | < 10 |  | 
N#Cc1c(Cl)nc2c(ccn2[C@@H]2O[C@H](COCP(=O)(O)O)[C@@H](O)[C@H]2O)c1N1CC2CC2C1 (stereo partly shown) [Compound 12] | < 10 | < 10 |  | 
N#Cc1c(Cl)nc2c(ccn2[C@@H]2O[C@H](COCP(=O)(O)O)[C@@H](O)[C@H]2O)c1N1CCC(F)(F)C1 [Compound 13, ((((2R,3S,4R,5R)-5-(6-chloro-5-cyano-4-(3,3-difluoropyrrolidin-1-yl)-1H-pyrrolo[2,3-b]pyridin-1-yl)-3,4-dihydroxytetrahydrofuran-2-yl)methoxy)methyl)phosphonic acid] | < 10 | < 10 |  | 
C[C@H](Nc1c(C#N)c(Cl)nc2c1ccn2[C@@H]1O[C@H](CS(=O)(=O)CP(=O)(O)O)[C@@H](O)[C@H]1O)c1ccc(F)cc1 [Compound 18, (((((2S,3S,4R,5R)-5-(6-chloro-5-cyano-4-(((S)-1-(4-fluorophenyl)ethyl)amino)-1H-pyrrolo[2,3-b]pyridin-1-yl)-3,4-dihydroxytetrahydrofuran-2-yl)methyl)sulfonyl)methyl)phosphonic acid] | < 10 | < 10 |  | 
N#Cc1c(Cl)nc2c(ccn2[C@@H]2O[C@H](CS(=O)(=O)CP(=O)(O)O)[C@@H](O)[C@H]2O)c1NC1CCC1 [Compound 19] | < 10 | < 10 |  | 
N#Cc1c(Cl)nc2c(ccn2[C@@H]2O[C@H](CS(=O)(=O)CP(=O)(O)O)[C@@H](O)[C@H]2O)c1NC1CC(F)(F)C1 [Compound 20] | < 10 | < 10 |  | 
N#Cc1c(Cl)nc2c(ccn2[C@@H]2O[C@H](CS(=O)(=O)CP(=O)(O)O)[C@@H](O)[C@H]2O)c1N1CC2CCCC2C1 (stereo partly shown) [Compound 21] | < 10 | < 10 |  | 
N#Cc1c(Cl)nc2c(ccn2[C@@H]2O[C@H](CS(=O)(=O)CP(=O)(O)O)[C@@H](O)[C@H]2O)c1N1CC2CC2C1 (stereo partly shown) [Compound 22] | < 10 | < 10 |  | 
N#Cc1c(Cl)nc2c(ccn2[C@@H]2O[C@H](CS(=O)(=O)CP(=O)(O)O)[C@@H](O)[C@H]2O)c1NC1CCCC1 [Compound 25, (((((2S,3S,4R,5R)-5-(6-chloro-5-cyano-4-(cyclopentylamino)-1H-pyrrolo[2,3-b]pyridin-1-yl)-3,4-dihydroxytetrahydrofuran-2-yl)methyl)sulfonyl)methyl)phosphonic acid] | < 10 | < 10 | 0.1 | 
N#Cc1c(Cl)nc2c(ccn2[C@@H]2O[C@H](COCP(=O)(O)O)[C@@H](O)[C@H]2O)c1NC1CC2CC2C1 (stereo partly shown) [Compound 26] | < 10 | < 10 |  | 
CNC(=O)c1c(Cl)nc2c(ccn2C2O[C@H](COCP(=O)(O)O)[C@@H](O)[C@H]2O)c1NC1CCCC1 (stereo partly shown) [Compound 40] |  | 10 to 100 |  | 
N#Cc1c(OCCO)nc2c(ccn2[C@@H]2O[C@H](COCP(=O)(O)O)[C@@H](O)[C@H]2O)c1N1CC2CCCC2C1 (stereo partly shown) [Compound 52] |  | > 100 |  | 
N#Cc1c(Cl)nc2c(ccn2[C@@H]2O[C@H](COCP(=O)(O)O)[C@@H](O)[C@@H]2F)c1N1CCC(F)(F)C1 [Compound 98] |  | 10 to 100 |  | 
N#Cc1c(Cl)nc2c(cnn2[C@@H]2O[C@H](COCP(=O)(O)O)[C@@H](O)[C@@H]2F)c1N1CCC(F)(F)C1 [Compound 99, ((((2R,3R,4S,5R)-5-(6-chloro-5-cyano-4-(3,3-difluoropyrrolidin-1-yl)-1H-pyrazolo[3,4-b]pyridin-1-yl)-4-fluoro-3-hydroxytetrahydrofuran-2-yl)methoxy)methyl)phosphonic acid] |  | > 100 |  | 
N#Cc1c(Cl)nc2c(ncn2[C@@H]2O[C@H](COCP(=O)(O)O)[C@@H](O)[C@@H]2F)c1N1CCC(F)(F)C1 [Compound 100] |  | 10 to 100 |  | 
N#Cc1nc2c(ccn2[C@@H]2O[C@H](CS(=O)(=O)CP(=O)(O)O)[C@@H](O)[C@@H]2F)c(N)c1C#N [Compound 189] |  | > 100 |  | 
C[C@@H](Nc1c(C#N)c(Cl)nc2c1cnn2[C@@H]1O[C@H](COP(=O)(O)CP(=O)(O)O)[C@@H](O)[C@H]1O)c1ccc(F)cn1 [Compound 258] |  | < 10 |  | 
C[C@H](Nc1c(C#N)c(Cl)nc2c1cnn2[C@@H]1O[C@H](COP(=O)(O)CP(=O)(O)O)[C@@H](O)[C@H]1O)c1ccccc1F [Compound 260] |  | < 10 |  | 
C[C@@H](Nc1c(C#N)c(Cl)nc2c1cnn2[C@@H]1O[C@H](COP(=O)(O)CP(=O)(O)O)[C@@H](O)[C@H]1O)c1ccc(F)cc1 [Compound 270] |  | < 10 |  | 
C[C@H](Nc1c(C#N)c(Cl)nc2c1cnn2[C@@H]1O[C@H](COP(=O)(O)CP(=O)(O)O)[C@@H](O)[C@H]1O)c1ccc(F)cn1 [Compound 271] |  | < 10 |  | 
Nc1ncnc2c1ncn2[C@@H]1O[C@H](COP(=O)(O)CP(=O)(O)O)[C@@H](O)[C@H]1O [adenosine 5′-(α,β-methylene) diphosphate, reference compound] |  |  |  | 50

From patent publication US12331068B2, “Compositions and methods for inhibiting CD73” (Peloton Therapeutics, Inc., priority 2018, dated 2025)
